Data from ChEMBL document CHEMBL1201862, “PubChem BioAssay data set” (2004).
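Protocol summary: plate cells (96-well), add compound at 5 concentrations, incubate 48 h, interpolate endpoints linearly. GI50 marks 50% less growth.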 The source made the active and inactive calls. No stated cut-off is given here; in the data, active = GI50 up to about 1.1 µM and inactive = higher.

How the values were obtained:
Assay in all cases: NCI tumour cell line growth inhibition, 48 h
A549 = tested on: A549
EKVX = tested on: EKVX
HCT-116 = tested on: HCT-116
HL-60 = tested on: HL-60
NCI-H226 = tested on: NCI-H226
SF-268 = tested on: SF-268
SF-539 = tested on: SF-539
SK-MEL-2 = tested on: SK-MEL-2
SN12C = tested on: SN12C
U-251 = tested on: U-251
UO-31 = tested on: UO-31
IGROV-1 = tested on: IGROV-1
KM12 = tested on: KM12
SK-MEL-5 = tested on: SK-MEL-5
SK-OV-3 = tested on: SK-OV-3
UACC-62 = tested on: UACC-62
LOX IMVI = tested on: LOX IMVI
SNB-75 = tested on: SNB-75

Measured: GI50

COc1ccc(CNc2nc3ccccc3nc2-c2cccs2)cc1OC
inactive: A549 16.2 µM | EKVX 59 µM | HCT-116 33.5 µM | HL-60 22 µM | NCI-H226 68.5 µM | SF-268 47.4 µM | SF-539 41 µM | SK-MEL-2 63.7 µM | SN12C 61.5 µM | U-251 75.5 µM | UO-31 22.6 µM

Cn1c(N)c(-c2c3ccccc3nc3ccccc23)c(=O)n(C)c1=O
inactive: A549 > 100 µM | EKVX > 100 µM | HCT-116 > 100 µM | HL-60 > 100 µM | IGROV-1 > 100 µM | KM12 > 100 µM | SF-268 > 100 µM | SF-539 > 100 µM | SK-MEL-2 > 100 µM | SK-MEL-5 > 100 µM | SK-OV-3 > 100 µM | SN12C > 100 µM | U-251 > 100 µM | UACC-62 > 100 µM

Cc1ccc(S(=O)(=O)n2cc(/C=C/C#N)c(/C=C/C#N)c2)cc1
inactive: A549 63.8 µM | EKVX 85.1 µM | HL-60 25.5 µM | IGROV-1 > 100 µM | KM12 48.4 µM | LOX IMVI 56.6 µM | SF-268 54 µM | SF-539 > 100 µM | SK-MEL-2 74.3 µM | SK-MEL-5 39.2 µM | SK-OV-3 > 100 µM | SN12C > 100 µM | SNB-75 29.8 µM | U-251 94.8 µM | UACC-62 48.9 µM | UO-31 23.4 µM

O=C(C/C(CCC(=O)N(Cc1ccccc1)Cc1ccccc1)=N/Nc1ccc([N+](=O)[O-])cc1[N+](=O)[O-])c1ccccc1
inactive: A549 86.1 µM | EKVX > 100 µM | HCT-116 > 100 µM | HL-60 41.2 µM | IGROV-1 > 100 µM | KM12 77.1 µM | LOX IMVI 25.4 µM | NCI-H226 > 100 µM | SF-268 38.8 µM | SF-539 54 µM | SK-MEL-2 > 100 µM | SK-OV-3 > 100 µM | SNB-75 > 100 µM | U-251 > 100 µM | UACC-62 25.9 µM | UO-31 35.2 µM

C#CCN(C)C(=O)N(CC#C)N=O
inactive: A549 > 100 µM | EKVX > 100 µM | HCT-116 > 100 µM | HL-60 > 100 µM | IGROV-1 > 100 µM | KM12 > 100 µM | LOX IMVI > 100 µM | SF-268 > 100 µM | SF-539 > 100 µM | SK-MEL-2 > 100 µM | SK-MEL-5 > 100 µM | SK-OV-3 > 100 µM | SN12C > 100 µM | SNB-75 > 100 µM | U-251 54.2 µM | UACC-62 > 100 µM | UO-31 > 100 µM

N#CC(/C(=N/NC(=O)C(=O)NN)C(=O)Nc1nc([N+](=O)[O-])cs1)c1ccc(Cl)cc1 (stereo not given)
inactive: A549 > 100 µM | EKVX > 100 µM | HCT-116 > 100 µM | HL-60 > 100 µM | IGROV-1 > 100 µM | KM12 > 100 µM | LOX IMVI > 100 µM | NCI-H226 > 100 µM | SF-268 > 100 µM | SK-MEL-2 > 100 µM | SK-MEL-5 > 100 µM | SN12C > 100 µM | SNB-75 > 100 µM | U-251 > 100 µM | UACC-62 56.5 µM | UO-31 > 100 µM

Oc1ccc(O)c(-n2cccn2)c1
inactive: A549 > 100 µM | EKVX > 100 µM | HL-60 18.7 µM | IGROV-1 > 100 µM | KM12 > 100 µM | LOX IMVI 52.7 µM | SF-268 85.9 µM | SF-539 > 100 µM | SK-MEL-2 37 µM | SK-MEL-5 > 100 µM | SK-OV-3 > 100 µM | SN12C 94.4 µM | SNB-75 > 100 µM | U-251 > 100 µM | UACC-62 50.4 µM | UO-31 56.4 µM

O=C(Nc1cccc(NC(=O)c2cc(=O)c3ccccc3o2)n1)c1cc(=O)c2ccccc2o1
inactive: A549 53.6 µM | EKVX 57.4 µM | HCT-116 27.1 µM | HL-60 32.3 µM | IGROV-1 38.2 µM | KM12 17.9 µM | LOX IMVI 6.1 µM | SF-268 13.5 µM | SF-539 20.3 µM | SK-MEL-2 > 100 µM | SK-MEL-5 64.9 µM | SK-OV-3 > 100 µM | SNB-75 38.8 µM | U-251 66.8 µM | UACC-62 6.75 µM | UO-31 10.4 µM

CC(C)(C)OC(=O)N1N=NC2C1C1CC(OCc3ccccc3)(OCc3ccccc3)C2O1 (stereo not given)
inactive: A549 84.5 µM | HL-60 8.02 µM | IGROV-1 > 100 µM | KM12 81.8 µM | LOX IMVI 18.1 µM | NCI-H226 21.4 µM | SF-268 35.1 µM | SF-539 > 10 µM | SK-MEL-2 49.2 µM | SK-MEL-5 16.8 µM | SK-OV-3 > 100 µM | SN12C 49.4 µM | SNB-75 28.1 µM | U-251 55.1 µM | UACC-62 71.4 µM | UO-31 29.9 µM

CC12CC[C@@H](C(C)(C)O)C1[C@@H](O)CC1(C)C2CCC2[C@@]3(C)CC[C@H](O)C(C)(C)C3C(O)C[C@]21C (stereo not given in full)
inactive: A549 11.5 µM | EKVX 13.2 µM | HCT-116 11.4 µM | HL-60 5.27 µM | IGROV-1 17.7 µM | KM12 14.6 µM | SF-268 14.9 µM | SF-539 15.8 µM | SK-MEL-2 18.7 µM | SK-MEL-5 4.07 µM | SN12C 13.4 µM | U-251 13.4 µM | UACC-62 15.6 µM | UO-31 21.6 µM

O=C(c1ccc2c3c(ccc(C(=O)C(F)(F)F)c13)CC2)C(F)(F)F
inactive: A549 57.1 µM | EKVX 81.7 µM | HCT-116 69.2 µM | IGROV-1 74 µM | KM12 44.1 µM | LOX IMVI 55.7 µM | NCI-H226 > 100 µM | SF-268 51.3 µM | SF-539 > 100 µM | SK-MEL-2 97.5 µM | SK-OV-3 > 100 µM | SN12C 92.9 µM | SNB-75 29.4 µM | U-251 63.2 µM | UACC-62 79.3 µM | UO-31 43.2 µM

CC(=O)O[C@H]1CCN2C(=O)C=CC(OCc3ccccc3)C12 (stereo not given in full)
inactive: A549 > 100 µM | EKVX > 100 µM | HL-60 > 100 µM | IGROV-1 > 100 µM | KM12 > 100 µM | LOX IMVI > 100 µM | NCI-H226 > 100 µM | SF-268 > 100 µM | SF-539 > 100 µM | SK-MEL-2 > 100 µM | SK-MEL-5 > 100 µM | SK-OV-3 > 100 µM | SN12C > 100 µM | SNB-75 > 100 µM | U-251 > 100 µM | UACC-62 > 100 µM | UO-31 > 100 µM

CCOC(=O)CC1NC(=O)CS1 (stereo not given)
inactive: A549 > 100 µM | EKVX > 100 µM | HCT-116 21.7 µM | HL-60 > 100 µM | IGROV-1 > 100 µM | KM12 > 100 µM | NCI-H226 12.6 µM | SF-268 49.7 µM | SF-539 > 100 µM | SK-MEL-5 > 100 µM | SK-OV-3 > 100 µM | SN12C 36.6 µM | SNB-75 > 100 µM | U-251 > 100 µM | UACC-62 > 100 µM | UO-31 > 100 µM

CC(C)(CN1CCCCC1)C(=O)/C=C/c1ccccc1
inactive: A549 16.9 µM | EKVX 7.13 µM | HCT-116 15.3 µM | IGROV-1 22.8 µM | KM12 9.25 µM | LOX IMVI 18.8 µM | NCI-H226 29 µM | SF-268 13.3 µM | SF-539 10.8 µM | SK-MEL-2 14.4 µM | SK-MEL-5 11.9 µM | SK-OV-3 21.3 µM | SN12C 15.4 µM | SNB-75 11.6 µM | U-251 21.5 µM | UACC-62 18.9 µM | UO-31 15.2 µM

O=C(c1ccccc1)C(c1ccccc1)C1(O)C(=O)Nc2ccccc21 (stereo not given)
inactive: A549 > 100 µM | EKVX > 100 µM | HCT-116 > 100 µM | HL-60 > 100 µM | IGROV-1 > 100 µM | LOX IMVI > 100 µM | NCI-H226 > 100 µM | SF-268 > 100 µM | SF-539 > 100 µM | SK-MEL-2 > 100 µM | SK-MEL-5 > 100 µM | SK-OV-3 > 100 µM | SN12C > 100 µM | SNB-75 43.6 µM | UACC-62 > 100 µM | UO-31 44.4 µM

O=C(O)c1cc(-c2ccccc2O)nc2ccccc12
inactive: A549 > 100 µM | EKVX > 100 µM | HCT-116 > 100 µM | IGROV-1 > 100 µM | KM12 > 100 µM | SF-268 > 100 µM | SF-539 > 100 µM | SK-MEL-2 > 100 µM | SK-MEL-5 > 100 µM | SK-OV-3 > 100 µM | SN12C > 100 µM | SNB-75 > 100 µM | U-251 > 100 µM | UACC-62 > 100 µM | UO-31 > 100 µM

Cc1nnc2n1N=C(c1ccc(-c3ccc([N+](=O)[O-])cc3)o1)CS2
inactive: A549 > 100 µM | HCT-116 > 100 µM | HL-60 > 100 µM | IGROV-1 > 100 µM | KM12 > 100 µM | LOX IMVI > 100 µM | NCI-H226 > 100 µM | SF-268 > 100 µM | SF-539 > 100 µM | SK-MEL-2 > 100 µM | SK-OV-3 > 100 µM | SN12C > 100 µM | SNB-75 > 100 µM | U-251 > 100 µM | UACC-62 > 100 µM | UO-31 > 100 µM
